Columns and labels:
Jurkat cell line = test: PARP cellular chemopotentiation assay (MTS, with/without TMZ); format: cell-based; details: Chemopotentiation factor: ratio of EC50 values of Jurkat cells co-treated without and with 100 μM TMZ; 96 hours
In short: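 Jurkat cells, 10,000/well, pre-cultured 24 h, then treated 96 h with serial compound dilutions (0.5% DMSO) with or without 100 μM TMZ. Viability by MTS conversion (OD490), normalized to DMSO controls; EC50 from curve fits, PF50 = EC50 without TMZ / EC50 with TMZ.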

[1] = molecular target: T1, catalytic domain of Human PARP (Homo sapiens, UniProt P09874); test: Biacore surface plasmon resonance affinity assay; format: binding; details: pKD=-log10 KD, KD in mol/L; Biacore T100, 25° C.; read-out: pKD (converted)
T1 construct: The catalytic domain of Human PARP was cloned and prepared; made in house
In short: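 Binding at 25° C on Biacore T100: 1 min compound association then 5 min dissociation (50 μL/min) over immobilized PARP catalytic domain, buffer HBS-P plus 1% DMSO, 0.5 mM TCEP, 5 mM MgCl2, 2-fold dilution series. KD derived as koff/kon from fitted association and dissociation phases.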

PARP = molecular target: T2, PARP (Homo sapiens, UniProt P09874); test: PARP ELISA (ELISA-based colorimetric PARP/Apoptosis Assay kit, Trevigen); format: biochemical; details: pIC50=-log10 IC50, IC50 in mol/L; inhibition of PARP catalytic activity
T2 construct: purchased Trevigen 4684-096-K HT (kit); 4684-096-01 (PARP enzyme)
In short: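 Quenched after 10 min catalysis by aspiration and four PBS/0.1% Triton X-100 washes. Poly(ADP-ribose) detected with mouse anti-PAR monoclonal antibody, goat anti-mouse IgG-HRP and HRP substrate; colorimetric signal proportional to PARP catalytic activity.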

T1 sequence (P09874 788-1014 limits assumed): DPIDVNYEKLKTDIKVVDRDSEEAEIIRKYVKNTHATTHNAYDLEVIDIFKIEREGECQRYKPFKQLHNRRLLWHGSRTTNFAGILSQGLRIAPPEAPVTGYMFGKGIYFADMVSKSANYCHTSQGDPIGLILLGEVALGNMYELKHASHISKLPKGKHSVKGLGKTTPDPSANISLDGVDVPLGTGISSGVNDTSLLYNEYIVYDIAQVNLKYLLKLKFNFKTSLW
T2 sequence (P09874 whole entry): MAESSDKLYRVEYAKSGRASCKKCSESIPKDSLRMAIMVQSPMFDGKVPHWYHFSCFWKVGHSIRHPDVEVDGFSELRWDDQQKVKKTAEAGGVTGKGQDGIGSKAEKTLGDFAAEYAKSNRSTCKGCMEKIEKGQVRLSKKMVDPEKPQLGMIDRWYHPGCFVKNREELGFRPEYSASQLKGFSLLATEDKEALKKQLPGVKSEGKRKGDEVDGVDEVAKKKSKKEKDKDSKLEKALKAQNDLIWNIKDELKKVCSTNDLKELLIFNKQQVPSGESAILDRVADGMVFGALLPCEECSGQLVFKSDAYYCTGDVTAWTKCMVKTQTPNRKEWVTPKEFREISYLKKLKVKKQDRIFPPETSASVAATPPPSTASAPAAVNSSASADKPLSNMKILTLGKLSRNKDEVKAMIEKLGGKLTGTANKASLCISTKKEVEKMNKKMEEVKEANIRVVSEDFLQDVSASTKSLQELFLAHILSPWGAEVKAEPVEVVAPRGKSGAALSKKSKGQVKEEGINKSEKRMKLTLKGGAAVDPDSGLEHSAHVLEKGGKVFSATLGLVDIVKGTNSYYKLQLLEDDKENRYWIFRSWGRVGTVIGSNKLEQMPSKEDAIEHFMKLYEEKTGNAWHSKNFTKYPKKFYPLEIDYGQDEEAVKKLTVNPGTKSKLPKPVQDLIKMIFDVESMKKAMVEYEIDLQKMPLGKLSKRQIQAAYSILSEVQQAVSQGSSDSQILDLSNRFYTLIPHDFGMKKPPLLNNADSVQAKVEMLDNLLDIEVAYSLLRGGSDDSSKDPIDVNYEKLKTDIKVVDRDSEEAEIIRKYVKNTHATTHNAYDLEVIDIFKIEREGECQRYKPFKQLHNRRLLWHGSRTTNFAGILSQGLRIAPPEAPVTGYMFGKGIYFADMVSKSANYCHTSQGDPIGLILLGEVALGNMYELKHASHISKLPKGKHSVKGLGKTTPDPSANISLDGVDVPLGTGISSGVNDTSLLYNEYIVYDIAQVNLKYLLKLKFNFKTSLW

| Structure (SMILES) | PF50 (Jurkat cell line) | Kd [1] [nM] | IC50 (PARP) [nM] |
| --- | --- | --- | --- |
| CCOC(=O)c1ccc(N2CCN(Cc3cc(C)c4c(c3)NC(=O)C(C)O4)CC2)cc1 (stereo not drawn) [Compound 255, Ethyl 4-(4-((2,8-dimethyl-3-oxo-3,4-dihydro-2H-benzo[b][1,4]oxazin-6-yl)methyl)piperazin-1-yl)benzoate] | ≦0.9 | 12.6 to 100 | 39.8 to 100 |
| COC(=O)c1ccc(N2CCN(Cc3ccc4c(c3)NC(=O)C(C)O4)CC2)cc1 (stereo not drawn) [Compound 220, Methyl 4-(4-((2-methyl-3-oxo-3,4-dihydro-2H-benzo[b][1,4]oxazin-6-yl)methyl)piperazin-1-yl)benzoate] | 1.0-1.9 | ≤ 10 | 39.8 to 100 |
| CC1Oc2ccc(CN3CCN(c4ccc(C#N)cc4)CC3)cc2NC1=O (stereo not drawn) [Compound 219, 4-(4-((2-methyl-3-oxo-3,4-dihydro-2H-benzo[b][1,4]oxazin-6-yl)methyl)piperazin-1-yl)benzonitrile] | ≦0.9 | ≤ 10 | ≤ 31.6 |
| CNC(=O)c1ccc(N2CCN(Cc3ccc4c(c3)NC(=O)C(C)O4)CC2)cc1 (stereo not drawn) [Compound 223, N-Methyl-4-(4-((2-methyl-3-oxo-3,4-dihydro-2H-benzo[b][1,4]oxazin-6-yl)methyl)piperazin-1-yl)benzamide] | ≦0.9 | ≤ 10 | ≤ 31.6 |
| Cc1cc(CN2CCN(c3ccc(C#N)cn3)CC2)cc2c1OC(C)C(=O)N2 (stereo not drawn) [Compound 254, 6-(4-((2,8-Dimethyl-3-oxo-3,4-dihydro-2H-benzo[b][1,4]oxazin-6-yl)methyl)piperazin-1-yl)nicotinonitrile] | 2.0-9.9 | 12.6 to 100 | ≤ 31.6 |
| CNC(=O)c1ccc(N2CCN(Cc3cc4c(c(OC)c3)OC(C)C(=O)N4)CC2)cc1 (stereo not drawn) [Compound 161, 4-(4-((8-Methoxy-2-methyl-3-oxo-3,4-dihydro-2H-benzo[b][1,4]oxazin-6-yl)methyl)piperazin-1-yl)-N-methylbenzamide] | ≧10.0 | < 31.6 | ≤ 31.6 |
